This passage reports Activity and hemolysis results from ChEMBL document CHEMBL1151766, “Engineering stabilized vascular endothelial growth factor-A antagonists: synthesis, structural characterization, and bioactivity of grafted analogues of cyclotides” (J Med Chem, 2008).

One series has as its system BaF3. Put plainly: Cytotoxicity against VEGF-A induced mouse BAF3-VEGF-R2 cells at >10 uM. The format is functional, cell-based.
Series [1] in a line: Toxicity in human erythrocytes assessed as hemolytic activity at 50 uM. The format is cell-based, Erythrocyte. The settings on record: read-out: Activity.

Molecules are shown by their SMILES.

`CC(C)C[C@@H]1NC(=O)CNC(=O)[C@H](CC(N)=O)NC(=O)[C@H](CCCNC(=N)N)NC(=O)[C@H]([C@@H](C)O)NC(=O)[C@H](CS)NC(=O)[C@H](C(C)C)NC(=O)[C@@H]2CCCN2C(=O)[C@H](CCC(=O)O)NC(=O)[C@H](CO)NC(=O)[C@H](CS)NC(=O)[C@H]([C@@H](C)O)NC(=O)[C@H](CS)NC(=O)CNC(=O)[C@@H]2CCCN2C(=O)[C@H]([C@@H](C)O)NC(=O)[C@H](CC(N)=O)NC(=O)[C@H](CS)NC(=O)[C@H]([C@@H](C)O)NC(=O)CNC(=O)CNC(=O)[C@H](C(C)C)NC(=O)[C@H](CS)NC(=O)[C@H]([C@@H](C)O)NC(=O)[C@H](CCC(=O)O)NC(=O)CNC(=O)[C@H](CS)NC(=O)[C@H](C(C)C)NC(=O)[C@@H]2CCCN2C1=O`: the Activity result in the series on BaF3 is “Toxic”.

Regarding `CC(C)C[C@@H]1NC(=O)CNC(=O)[C@H](CC(N)=O)NC(=O)[C@H](CCCNC(=N)N)NC(=O)[C@H]([C@@H](C)O)NC(=O)[C@@H]2CSSC[C@@H]3NC(=O)[C@H]([C@@H](C)O)NC(=O)CNC(=O)CNC(=O)[C@H](C(C)C)NC(=O)[C@@H]4CSSC[C@H](NC(=O)[C@H]([C@@H](C)O)NC(=O)[C@H](CSSC[C@H](NC(=O)[C@H](C(C)C)NC(=O)[C@@H]5CCCN5C1=O)C(=O)NCC(=O)N[C@@H](CCC(=O)O)C(=O)N[C@@H]([C@@H](C)O)C(=O)N4)NC(=O)CNC(=O)[C@@H]1CCCN1C(=O)[C@H]([C@@H](C)O)NC(=O)[C@H](CC(N)=O)NC3=O)C(=O)N[C@@H](CO)C(=O)N[C@@H](Cc1c[nH]c3ccccc13)C(=O)N1CCC[C@H]1C(=O)N[C@@H](C(C)C)C(=O)N2` [KALATA B1], in series [1], the hemolysis at 50 µM was 50%.
